This is an account of results in ChEMBL document CHEMBL6083238, “Design, synthesis and biological evaluation of novel benzocoumarin derivatives as potent inhibitors of MAO-B activity” (Bioorg Med Chem Lett, 2024).

In data set [1] the target is T1, Amine oxidase [flavin-containing] B (Homo sapiens, UniProt P27338).
T1 sequence (P27338 whole entry): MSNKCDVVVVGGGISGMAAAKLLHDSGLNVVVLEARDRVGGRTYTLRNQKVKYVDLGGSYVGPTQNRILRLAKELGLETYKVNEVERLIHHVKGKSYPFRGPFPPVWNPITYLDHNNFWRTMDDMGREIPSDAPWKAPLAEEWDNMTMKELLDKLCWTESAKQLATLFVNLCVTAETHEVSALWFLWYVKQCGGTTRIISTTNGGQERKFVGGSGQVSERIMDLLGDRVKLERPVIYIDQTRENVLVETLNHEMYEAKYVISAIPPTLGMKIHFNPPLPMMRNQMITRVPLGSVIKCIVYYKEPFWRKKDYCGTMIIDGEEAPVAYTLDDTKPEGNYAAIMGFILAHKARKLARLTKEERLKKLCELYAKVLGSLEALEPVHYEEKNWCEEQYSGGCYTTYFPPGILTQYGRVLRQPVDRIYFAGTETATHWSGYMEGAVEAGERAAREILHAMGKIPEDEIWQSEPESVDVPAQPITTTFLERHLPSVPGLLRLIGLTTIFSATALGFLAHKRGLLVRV
Description: Inhibition of human MAO-B using p-tyramine as substrate by amplex red staining based fluorometric analysis

Data set [2] has as its target T2, MAO-A (amine oxidase [flavin-containing] A) (Homo sapiens, UniProt P21397).
T2 sequence (P21397 whole entry): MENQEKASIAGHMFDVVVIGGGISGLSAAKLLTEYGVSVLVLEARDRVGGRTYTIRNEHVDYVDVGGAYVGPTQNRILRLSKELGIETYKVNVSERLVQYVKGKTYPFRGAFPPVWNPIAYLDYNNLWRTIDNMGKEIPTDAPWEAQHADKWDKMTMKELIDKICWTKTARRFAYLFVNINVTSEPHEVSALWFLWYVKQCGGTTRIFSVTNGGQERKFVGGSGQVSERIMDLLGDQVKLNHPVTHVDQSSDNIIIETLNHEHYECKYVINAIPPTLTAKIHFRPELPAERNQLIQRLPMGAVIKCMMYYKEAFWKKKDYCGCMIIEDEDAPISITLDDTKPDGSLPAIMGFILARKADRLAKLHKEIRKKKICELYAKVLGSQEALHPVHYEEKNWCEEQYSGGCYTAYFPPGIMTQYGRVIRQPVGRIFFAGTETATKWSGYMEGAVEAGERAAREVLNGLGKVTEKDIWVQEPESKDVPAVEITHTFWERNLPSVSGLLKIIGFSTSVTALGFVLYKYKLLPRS
The experiment in a line: in vitro. The note with it: human MAO-A enzyme, probe p-tyramine.
Description: Inhibition of human MAO-A using p-tyramine as substrate at 100 uM by amplex red staining based fluorometric analysis relative to control

Data set [3] deals with T3, Amine oxidase [flavin-containing] A (Homo sapiens, UniProt P21397).
T3 sequence (P21397 whole entry): T2 sequence (P21397 whole entry)
Description: Inhibition of human MAO-A using p-tyramine as substrate by amplex red staining based fluorometric analysis

The structures appear in SMILES notation.

Turning to `COc1ccc(-c2cc3cc4ccccc4cc3oc2=O)cc1OC`, in data set [1], the IC50 amounted to 1.41 µM. In data set [2], this molecule yielded an inhibition at 100 µM of 36.6%.

In turn, `COc1ccc(-c2cc3ccc4ccccc4c3oc2=O)cc1` yielded an inhibition at 100 µM in data set [2] of 15.3%. On to `CC(=O)Oc1ccc(-c2cc3ccc4ccccc4c3oc2=O)cc1OC(C)=O`, for which the IC50 in data set [3] came out at 78.3 µM; in data set [1] it was 13.9 µM. `COc1ccc(-c2cc3ccc4ccccc4c3oc2=O)cc1OC` had an IC50 in data set [1] of 0.241 µM. Also, 100 µM produced 24% inhibition in data set [2]. Take `CC(=O)Oc1ccc(-c2cc3cc4ccccc4cc3oc2=O)cc1OC(C)=O`: the IC50 in data set [3] amounted to 97.2 µM; in data set [1], 54.4 µM.

Turning to `COc1ccc(-c2cc3cc4ccccc4cc3oc2=O)cc1`, the IC50 in data set [1] was found to be 48.1 µM. In data set [2], this molecule displayed an inhibition at 100 µM of 3.85%.
